Here are results for six compounds from patent US5888993A, “Vanadium compounds in the treatment of elevated blood sugar levels” (The University of British Columbia, priority 1997, dated 1999).

The subject of series [1] is diabetic rats. Description: Glucose time course after gavage of ammonium bis(maltolato)dioxovanadate in STZ diabetic rats. The format is in vivo, male Wistar rats. The note with it: 0.55 mmoles/kg gavage. The procedure:
Six male Wistar rats, weighing 175-200 gm, were made diabetic by the intravenous injection of 60 mg/kg of streptozotocin dissolved in 0.9% saline via the tail vein. Seven days after the injection the rats were diabetic having an average glucose concentration of 24.20 mM. 0.55 mmoles/kg of the ammonium salt of bis(maltolato)dioxovanadate suspended in 3% acacia was gavaged into the rats. Blood was collected and analyzed for glucose as a function of time.

For series [2], the system named is diabetic rats. Description: Comparative testing, plasma glucose after oral gavage in STZ diabetic rats. The format is in vivo, male wistar rats. As to conditions: oral gavage 1 mmol/kg. The procedure: Diabetes was induced in all animals by a single intravenous injection of streptozotocin (STZ) 60 mg/kg in 0.9% NaCl via the tail vein. Three days after STZ injection, blood was collected from the tail by nicking the tail tip and expressing the blood into heparinized capillary tubes. Blood was centrifuged at 20,000 g for 10 minutes to separate the plasma. Glucose analysis was done immediately on the plasma sample using a Boehringer Mannheim kit. […] One week after STZ injection animals were randomly divided into 3 pairs of rats. Each pair of rats received by oral gavage 1 mmol/kg of BMOV or VO(Sal)2 or VO(acac)2, suspended in 3% acacia.

Series [3] has as its system diabetic rats. Nature of the series: Comparison of BMOV and vanadyl kojate, acute time course of plasma glucose, rats made diabetic with STZ. The format is in vivo, rat. Also noted: plasma glucose level: unit not given here. The procedure: Using BMOV and Vanadyl Kojate as prepared in Examples 1 and 2 above, the relative efficacy of the two compounds was assessed using rats made diabetic with STZ. Again the animals were divided into responder and non-responder groups. For a 0.063 mmol V/kg ip injection, BMOV gave a 50:50 split between responder and non-responder groups whereas for vanadyl kojate the ratio was 60:40. On oral gavage of 0.55 mmol V/kg the responder:non-responder ratios were 50:50 and 57:43 respectively (n=10). However over a 12 day test period, there was a 100% response in terms of blood glucose reduction for diabetic rats receiving vanadyl kojate orally.

A short description of series [4]: log p (partition coefficient). It is filed as physicochemical.
The conditions of series [5]: in vivo; cited from earlier work.
The conditions of series [6]: in vivo; cited from earlier work. This is another data set of the same source.
Series [7] concerns spontaneously hypertensive rats (SHR). Description: Blood pressure reduction by vanadyl sulphate, spontaneously hypertensive rats. The format is in vivo, rat. As to conditions: for systolic blood pressure / hypertension, prevention: 75-125 mg/kg/day in drinking water. The method, then:
(§1) The insulin resistant spontaneously hypertensive rat was used as the experiment model and the vanadyl form of vanadium as the experimental intervention. […] Rats, procured at 4 weeks of age, were divided
(§2) into 4 groups: SHR (untreated), SHRV (treated), WKY (untreated), WKYV (treated). Chronic vanadyl sulfate treatment (0.75 mg/ml ad libitum in the drinking water) was started on the SHRV and WKYV groups at 5 weeks of age. After week 8, when hypertension becomes fully manifest in the SHR, weekly measurements of plasma insulin and systolic blood pressure (tail cuff method) were done on all four groups.
(§3) At week 11, the untreated control SHR and WKY groups from the prevention study were further subdivided and half the animals in each group were started on oral vanadyl sulfate treatment. This was done to observe the reversal effects of vanadyl, if any, after the SHR had become hypertensive. […] A direct blood pressure reading done in all groups at termination validated the earlier indirect measurements. Vanadyl sulfate prevented as well as reversed hypertention in the hyperinsulinemic spontaneously hypertensive rat, a model that closely resembles human essential hypertension. Besides establishing further the role that insulin resistance/hyperinsulinemia may play in the development of high blood pressure, this study also indicated a possible therapeutic role for vanadyl sulfate in hypertensive, hyperinsulinemic subjects.

The subject of series [8] is rats made diabetic with streptozoticin (STZ). As to conditions: oral / drinking water; cited from earlier work.
A further series concerns Wistar Kyoto (WKY) rats. Description: Blood pressure study with vanadyl sulphate, normotensive Wistar Kyoto rats. The format is in vivo, rat. The note with it: for changes in normotensive animals, prevention: WKYV; for effect in Wistar Kyoto rats, reversal: WKYV1, treatment from week 11. The method, then:
as §1, §2, §3

The test system of the next series is STZ-diabetic rats. Nature of the series: Comparison of BMOV and ETHYLBMOV, plasma glucose and insulin in STZ-diabetic rats. The format is in vivo, rat. The note with it: 0.6 mmol kg^-1, one oral gavage, 24 hour period. The procedure:
Animal studies were conducted in STZ-diabetic rats comparing doses of 0.6 mmol kg^-1 for VO(ma)2 (BMOV) and VO(ema)2 (ETHYLVMOV). FIGS. 8 and 9 respectively show plasma glucose and plasma insulin values recorded over 24 hour periods after one oral gavage of a water solution of either BMOV or ETHYLBMOV, in order to compare their efficacies.

The mark [9] stands for this setting: 0 h, individual rats (two per drug).
Setting [10] is: SHRV, 75-125 mg/kg/day, weeks 8-12.

Several values for one entry are separate records, joined by “and”; a condition that tells them apart may be missing. Equal values may be shown once.

With `Cc1occc(=O)c1[O-].Cc1occc(=O)c1[O-].[NH4+].[O]=[V+]=[O]` [Ammonium bis(maltolato)dioxovanadate], in the series on diabetic rats [1], the “reduction of elevated glucose levels, in words” value is on record as “effective in reducing the elevated glucose levels”. Also, the Glucose in the series with diabetic rats [1] (0 h) is on record as 24.2 mM; with diabetic rats [1] (1 h) it was 24.4 mM; in the series with diabetic rats [1] (2 h), 25.5 mM; in the series on diabetic rats [1] (4 h) it was 24.7 mM; in the series with diabetic rats [1] (8 h) it was 22.3 mM; in the series on diabetic rats [1] (12 h), 20.1 mM. The compound also registered a Glucose in the series on diabetic rats [1] (24 h) of 14.9 mM.

Turning to `O=Cc1ccccc1[O-].O=Cc1ccccc1[O-].[O]=[V+2]` [VO(Sal)2, Bis(salicylaldehyde)oxovanadium(IV)], the plasma glucose level is 21.09 mM and 21.12 mM in the series with diabetic rats [2] (setting [9]); 22.77 mM and 22.31 mM with diabetic rats [2] (2 h, individual rats); 20.18 mM and 21.74 mM with diabetic rats [2] (4 h, individual rats); 20.67 mM and 21.85 mM in the series on diabetic rats [2] (6 h, individual rats); 21.57 mM and 21.59 mM in the series with diabetic rats [2] (8 h, individual rats); 19.24 mM and 19.74 mM in the series with diabetic rats [2] (12 h, individual rats). Also, in the series on diabetic rats [2] (24 h, individual rats), the plasma glucose level was 18.73 mM and 18.64 mM.

Regarding `CC(=O)/C=C(/C)[O-].CC(=O)/C=C(/C)[O-].[O]=[V+2]` [VO(acac)2, Bis(acetylacetonate)oxovanadium(IV)], the plasma glucose level in the series with diabetic rats [2] (setting [9]) was 23.87 mM and 22.74 mM; in the series with diabetic rats [2] (2 h, individual rats), 22.91 mM and 24.5 mM; in the series on diabetic rats [2] (4 h, individual rats), 22.37 mM and 22.89 mM; with diabetic rats [2] (6 h, individual rats), 23.96 mM and 22.94 mM; in the series with diabetic rats [2] (8 h, individual rats), 27.19 mM and 23.65 mM; in the series on diabetic rats [2] (12 h, individual rats), 19.13 mM and 18.86 mM. The plasma glucose level in the series with diabetic rats [2] (24 h, individual rats) came out at 2.43 mM. Further, in the series on diabetic rats [2] (24 h, rat 5), the death entry is recorded as “dead”.

Regarding `[O]=[V-2]12([O]C3=COC(CO)=CC3=[O+]1)[O]C1=COC(CO)=CC1=[O+]2` [vanadyl kojate, Bis(kojato)oxovanadium(IV)], the plasma glucose level with diabetic rats [3] (i.p. 0.063 mmol/kg, nonresponders (DTN), 0 h) is listed as 20.86; in the series with diabetic rats [3] (i.p. 0.063 mmol/kg, nonresponders (DTN), 1 h), 18.55; in the series with diabetic rats [3] (i.p. 0.063 mmol/kg, nonresponders (DTN), 2 h), 16.62; with diabetic rats [3] (i.p. 0.063 mmol/kg, nonresponders (DTN), 4 h) it was 17.37; in the series on diabetic rats [3] (i.p. 0.063 mmol/kg, nonresponders (DTN), 6 h), 16.62; in the series on diabetic rats [3] (i.p. 0.063 mmol/kg, nonresponders (DTN), 8 h), 15.49. Moreover, the plasma glucose level with diabetic rats [3] (i.p. 0.063 mmol/kg, nonresponders (DTN), 12 h) is on record as 18.24; in the series on diabetic rats [3] (i.p. 0.063 mmol/kg, nonresponders (DTN), 24 h), 18.77; in the series with diabetic rats [3] (i.p. 0.063 mmol/kg, responders (DTR), 0 h) it was 17.94; in the series on diabetic rats [3] (i.p. 0.063 mmol/kg, responders (DTR), 1 h), 14.75; in the series with diabetic rats [3] (i.p. 0.063 mmol/kg, responders (DTR), 2 h) it was 10.17; in the series on diabetic rats [3] (i.p. 0.063 mmol/kg, responders (DTR), 4 h) it was 9.26. The plasma glucose level in the series with diabetic rats [3] (i.p. 0.063 mmol/kg, responders (DTR), 6 h) turned out to be 8.73; with diabetic rats [3] (i.p. 0.063 mmol/kg, responders (DTR), 8 h), 7.4; in the series on diabetic rats [3] (i.p. 0.063 mmol/kg, responders (DTR), 12 h), 10.37; with diabetic rats [3] (i.p. 0.063 mmol/kg, responders (DTR), 24 h), 13.28; in the series with diabetic rats [3] (oral gavage 0.55 mmol/kg, nonresponders (DTN), 0 h), 23.08; in the series with diabetic rats [3] (oral gavage 0.55 mmol/kg, nonresponders (DTN), 1 h), 21.18. Besides, the plasma glucose level in the series on diabetic rats [3] (oral gavage 0.55 mmol/kg, nonresponders (DTN), 2 h) amounted to 21.51; with diabetic rats [3] (oral gavage 0.55 mmol/kg, nonresponders (DTN), 4 h), 20.57; in the series on diabetic rats [3] (oral gavage 0.55 mmol/kg, nonresponders (DTN), 6 h), 18.2; with diabetic rats [3] (oral gavage 0.55 mmol/kg, nonresponders (DTN), 8 h), 19.06; with diabetic rats [3] (oral gavage 0.55 mmol/kg, nonresponders (DTN), 12 h) it was 18.81; in the series with diabetic rats [3] (oral gavage 0.55 mmol/kg, nonresponders (DTN), 24 h), 25.0. Further, the plasma glucose level in the series on diabetic rats [3] (oral gavage 0.55 mmol/kg, responders (DTR), 0 h) is 15.75; in the series on diabetic rats [3] (oral gavage 0.55 mmol/kg, responders (DTR), 1 h) it was 12.5; with diabetic rats [3] (oral gavage 0.55 mmol/kg, responders (DTR), 2 h), 10.1; in the series on diabetic rats [3] (oral gavage 0.55 mmol/kg, responders (DTR), 4 h), 7.96; in the series on diabetic rats [3] (oral gavage 0.55 mmol/kg, responders (DTR), 6 h) it was 6.6; with diabetic rats [3] (oral gavage 0.55 mmol/kg, responders (DTR), 8 h), 6.87. For the same compound, the plasma glucose level is listed as 6.01 in the series on diabetic rats [3] (oral gavage 0.55 mmol/kg, responders (DTR), 12 h) and 6.74 in the series on diabetic rats [3] (oral gavage 0.55 mmol/kg, responders (DTR), 24 h). Moreover, the “food and fluid demand” value in the series on diabetic rats [3] (oral, 12 day test period) is listed as “significantly reduced”. Further, the “response in terms of blood glucose reduction” value with diabetic rats [3] (oral, 12 day test period) is 100%. The log p in series [4] is reported as 0.012.

As for `O=S(=O)([O-])[O-].[O]=[V+2]` [vanadyl sulfate], the “absorption from the gastrointestinal tract” value in series [5] is reported as “poorly absorbed”. Further, in series [6], the toxicity entry is reported as “less toxic than the vanadate form of vanadium”. Also, in [7] (SHRV1, treatment from week 11), the “hypertension / blood pressure, reversal” value was “reversed hypertension” and the “plasma insulin, reversal” value is recorded as “lowering their plasma insulin to control values”. Also, the “hypertension / blood pressure, reversal” value in series [7] (SHRV1, treatment from week 11, listed as vanadyl) is “reduce the blood pressure”. For the same compound, the “systolic blood pressure / hypertension, prevention” value in [7] (SHRV, weeks 8-12) was “lowered both plasma insulin and systolic blood pressure”. In addition, the “systolic blood pressure / hypertension, prevention” value in series [7] (SHRV, weeks 8-12, listed as vanadyl) is “prevents the onset of hypertension”. Besides, in series [7] (setting [10]), the plasma glucose levels entry is “without causing any change in the plasma glucose levels”; the “plasma insulin, prevention” value was “lowered both plasma insulin and systolic blood pressure”. In addition, the “gastrointestinal, renal or hepatic toxicity” value in [7] (treated animals, 75-125 mg/kg/day, entire experimental period) is listed as “No gastrointestinal, renal or hepatic toxicity”. Besides, in [8], the blood glucose result is “lowers blood glucose and blood lipids”; the “cardiac performance / secondary complications of diabetes” value was “prevents secondary complications of diabetes such as cataracts and cardiac dysfunction”. Further, in the series with Wistar Kyoto (WKY) rats, the “changes in normotensive animals, prevention” value is “No changes were seen” and the “effect in Wistar Kyoto rats, reversal” value is “no effect”. In the series with Wistar Kyoto (WKY) rats (listed as vanadyl), the “effect in Wistar Kyoto rats, reversal” value is on record as “no effect is observed” and the “changes in normotensive animals, prevention” value was “No change is observed”. Also, in the series with Wistar Kyoto (WKY) rats (normal animals), the “adverse effect on normal animals (hypotension)” value is recorded as “no adverse effect on normal animals”.

With “Bis(ethylmaltolato)oxovanadium(IV) [ETHYLBMOV]”, in the series with STZ-diabetic rats, the “plasma glucose, difference BMOV vs ETHYLBMOV” value is reported as “statistically insignificant” and the “plasma insulin, difference BMOV vs ETHYLBMOV” value was “statistically insignificant”.
